Data from patent US20220088102A1, “CROTON LECHLERI COMPOSITIONS AND THEIR USE IN THE TREATMENT OF CYSTIC FIBROSIS” (priority 2020, published 2022).
Values after ≈ are worked out from the molar mass of the structure shown. Like-named read-outs stand apart in the source and are kept apart here.

Key:
[1] = Log P analysis (partition coefficient, water and n-Octanol)
Excerpt: (§1) All reference to skin includes references to epithelial skin and epithelial layer of the lungs, nose, mouth and throat. IVPT is a flux measurement that is common to those skilled in the art to evaluate topical drugs inclusive to topical delivery to the lungs, nose, mouth and throat.
Log P is an assessment of a molecule's lipophilicity, indicating how readily an analyte can partition between aqueous and organic phases. […] To reach high systemic levels, a topical drug must be permeable enough, which is defined as lipophilic enough, to partition into the lipid bilayer of the skin, but, not so lipophilic that once it is in the skin bilayer it will stay sequestered there. Lipophilicity plays a major role in determining where drugs are distributed within the body after absorption into tissues and, as a consequence, in how rapidly they are metabolized and excreted.
The Log P value is a constant defined in the following manner: Log P=log 10 (Partition Coefficient) Partition Coefficient, P=[organic]/[aqueous] Where [ ] indicates the concentration of solute in the organic and aqueous partition. […] Although log P is a constant, its value is dependent on the choice of the organic partitioning solvent and, to a lesser degree, on the conditions of measurement.

[2] = In vitro Permeation Test (IVPT), Franz diffusion cell, Strat-M membranes
Excerpt: as §1

DNA of the cells = conditions: Chen 1994, cited from earlier work
[3] = test system: methicillin-resistant Staphylococcus aureus (MRSA) strains; experiment: In vitro MIC and MBC assay, strain panel (Example 3); format: cell-based; conditions: for MIC: MRSA (Table 13); for MBC (% relative to amount in AB-101) / MIC (% relative to amount in AB-101): MRSA; for MIC (% relative to amount in AB-101): 50% = 10 μg/mL taspine
Excerpt: (§2) Measures included the minimum inhibitory concentration (MIC) which is the lowest concentration of AB-101 that prevents visible growth of the bacterium or pathogen, and minimum bactericidal concentration (MBC) which is the lowest concentration of an antibacterial agent required to kill a bacterium.

[4] = test system: methicillin-susceptible Staphylococcus aureus (MSSA) strains; experiment: as above; format: cell-based; conditions: for MIC (% relative to amount in AB-101): 50% = 10 μg/mL taspine
Excerpt: as §2

[5] = component of AB-101, 100%, Batch 0
[6] = component of AB-101, 100%, Batch 1
[7] = component of AB-101, 100%, Batch 2
[8] = component of AB-101, 100%, Batch X
[9] = component of AB-101 Lyophilized & Resuspended, Batch 0
[10] = component of AB-101 Lyophilized & Resuspended, Batch 1
[11] = component of AB-101 Lyophilized & Resuspended, Batch 2
[12] = component of AB-101 Lyophilized & Resuspended, Batch X
[13] = strain ATCC 29213, QC control (Table 13)
[14] = strain CDC 461, MupirocinS, MSSA (Table 13)
[15] = strain CDC 463, MupirocinS, MSSA (Table 13)
[16] = highest concentration tested 50% relative to AB-101 = 10 μg/mL taspine
[17] = strain 1674606, MupirocinR, MSSA
[18] = strain 1674608, MupirocinR, MSSA
[19] = strain CDC 461, MupirocinS, MSSA
[20] = strain CDC 462, MupirocinS, MSSA
[21] = strain CDC 463, MupirocinS, MSSA
[22] = strain CDC 464, MupirocinS, MSSA
[23] = strain CDC 484, MupirocinS, MSSA
[24] = strain CDC 485, MupirocinS, MSSA

Oc1cc(O)c2c(c1)O[C@H](c1cc(O)c(O)c(O)c1)[C@H](O)C2 [Epigallocatcchin]
LogP [1, 5]: −0.79 | LogP [1, 6]: 0.27 | LogP [1, 7]: 0.86 | LogP [1, 8]: 1.82 | LogP [1, 9]: 1.20 | LogP [1, 10]: −0.11 | LogP [1, 11]: −1.71 | LogP [1, 12]: −0.55

Oc1cc(O)c2c(c1)O[C@H](c1cc(O)c(O)c(O)c1)[C@H](O)C2 [Epigallocatechin, epigallocatechin]
Flux (J) ([2]; component permeating from AB-101 100% Lot 1): 503.51 ug/cm^2/hr | Flux (J) ([2]; component permeating from AB-101 100% Lot X): 57.09 ug/cm^2/hr | effect on cell proliferation (DNA of the cells): slightly stimulating to cell proliferation

COc1cccc(OC)c1C(=O)N[C@@H]1C(=O)N2[C@@H]1SC(C)(C)[C@@H]2C(=O)O [Methicillin]
MIC ([3]; strain CDC 480, MupirocinS): 0.032 to 0.064 ng/mL | MIC ([3]; strain CDC 481, MupirocinS): 0.016 to 0.032 ng/mL | MIC ([3]; strain CDC 482, MupirocinS): 0.008 to 0.032 ng/mL | MIC ([4]; strain 1674606, MupirocinR, MSSA (Table 13)): 0.002 to 0.008 ng/mL | MIC ([4]; strain 1674608, MupirocinR, MSSA (Table 13)): 0.002 to 0.004 ng/mL | MIC [4, 13]: 0.001 to 0.002 ng/mL | MIC [4, 14]: 0.004 to 0.008 ng/mL | MIC [4, 15]: 0.008 to 0.016 ng/mL | MIC ([4]; strain CDC 485, MupirocinS, MSSA (Table 13)): 0.002 to 0.004 ng/mL

C/C(=C\C(=O)OCCCCCCCCC(=O)O)C[C@@H]1OC[C@H](C[C@@H]2O[C@H]2[C@@H](C)[C@H](C)O)[C@@H](O)[C@H]1O [Mupirocin]
MIC ([3]; strain CDC 227, MupirocinS): ≤0.00025 to 0.0005 ng/mL | MIC ([4]; Staphylococcus aureus, MSSA, strain 1674606, MupirocinR, MSSA, read-out: MIC): > 256000 ng/mL | MIC ([4]; Staphylococcus aureus, MSSA, strain 1674608, MupirocinR, MSSA, read-out: MIC): > 256000 ng/mL | MIC ([4]; Staphylococcus aureus, MSSA, strain CDC 463, MupirocinS, MSSA, read-out: MIC): 250 to 500 ng/mL (≈ 499 to 999 nM) | MIC ([4]; Staphylococcus aureus, MSSA, strain CDC 484, MupirocinS, MSSA, read-out: MIC): ≤ 250 ng/mL | MIC ([4]; Staphylococcus aureus, MSSA, strain CDC 485, MupirocinS, MSSA, read-out: MIC): ≤ 250 ng/mL | MIC [4, 13]: ≤0.00025 to 0.0005 ng/mL | MIC [4, 14]: ≤0.00025 to 0.001 ng/mL | MIC [4, 15]: ≤0.00025 to 0.0005 ng/mL

COc1ccc2c(=O)oc3c(OC)cc(CCN(C)C)c4c(=O)oc1c2c34 [Taspin]
LogP [1, 5]: −1.15 | LogP [1, 6]: −1.76 | LogP [1, 7]: −0.90 | LogP [1, 8]: −0.31 | LogP [1, 9]: −1.06 | LogP [1, 10]: −0.94 | LogP [1, 11]: −1.71 | LogP [1, 12]: −0.07

COc1ccc2c(=O)oc3c(OC)cc(CCN(C)C)c4c(=O)oc1c2c34 [Taspine, taspine]
activity as evaluated by this invitro test method (MIC, MBC) [3, 16]: does not have activity | MBC (% relative to amount in AB-101) ([3]; strain 1674607, MupirocinR): >50 % relative to amount in AB-101 | MIC (% relative to amount in AB-101) ([3]; strain 1674607, MupirocinR): >50 % relative to amount in AB-101 | MBC (% relative to amount in AB-101) ([3]; strain 1674611, MupirocinR): >50 % relative to amount in AB-101 | MIC (% relative to amount in AB-101) ([3]; strain 1674611, MupirocinR): >50 % relative to amount in AB-101 | MBC (% relative to amount in AB-101) ([3]; strain CDC 218, MupirocinR): >50 % relative to amount in AB-101 | MIC (% relative to amount in AB-101) ([3]; strain CDC 218, MupirocinR): >50 % relative to amount in AB-101 | MBC (% relative to amount in AB-101) ([3]; strain CDC 220, MupirocinS): >50 % relative to amount in AB-101 | MIC (% relative to amount in AB-101) ([3]; strain CDC 220, MupirocinS): >50 % relative to amount in AB-101 | MBC (% relative to amount in AB-101) ([3]; strain CDC 224, MupirocinR): >50 % relative to amount in AB-101 | MIC (% relative to amount in AB-101) ([3]; strain CDC 224, MupirocinR): >50 % relative to amount in AB-101 | MBC (% relative to amount in AB-101) ([3]; strain CDC 227, MupirocinS): >50 % relative to amount in AB-101 | MIC (% relative to amount in AB-101) ([3]; strain CDC 227, MupirocinS): >50 % relative to amount in AB-101 | MBC (% relative to amount in AB-101) ([3]; strain CDC 228, MupirocinR): >50 % relative to amount in AB-101 | MIC (% relative to amount in AB-101) ([3]; strain CDC 228, MupirocinR): >50 % relative to amount in AB-101 | MBC (% relative to amount in AB-101) ([3]; strain CDC 480, MupirocinS): >50 % relative to amount in AB-101 | MIC (% relative to amount in AB-101) ([3]; strain CDC 480, MupirocinS): >50 % relative to amount in AB-101 | MBC (% relative to amount in AB-101) ([3]; strain CDC 481, MupirocinS): >50 % relative to amount in AB-101 | MIC (% relative to amount in AB-101) ([3]; strain CDC 481, MupirocinS): >50 % relative to amount in AB-101 | MBC (% relative to amount in AB-101) ([3]; strain CDC 482, MupirocinS): >50 % relative to amount in AB-101 | MIC (% relative to amount in AB-101) ([3]; strain CDC 482, MupirocinS): >50 % relative to amount in AB-101 | MBC (% relative to amount in AB-101) ([3]; strain CDC 483, MupirocinS): >50 % relative to amount in AB-101 | MIC (% relative to amount in AB-101) ([3]; strain CDC 483, MupirocinS): >50 % relative to amount in AB-101 | activity as evaluated by this invitro test method (MIC, MBC) [4, 16]: does not have activity | MBC (% relative to amount in AB-101) [4, 17]: >50 % relative to amount in AB-101 | MIC (% relative to amount in AB-101) [4, 17]: >50 % relative to amount in AB-101 | MBC (% relative to amount in AB-101) [4, 18]: >50 % relative to amount in AB-101 | MIC (% relative to amount in AB-101) [4, 18]: >50 % relative to amount in AB-101 | MBC (% relative to amount in AB-101) ([4]; strain ATCC 29213, QC control): >50 % relative to amount in AB-101 | MIC (% relative to amount in AB-101) ([4]; strain ATCC 29213, QC control): >50 % relative to amount in AB-101 | MBC (% relative to amount in AB-101) [4, 19]: >50 % relative to amount in AB-101 | MIC (% relative to amount in AB-101) [4, 19]: >50 % relative to amount in AB-101 | MBC (% relative to amount in AB-101) [4, 20]: >50 % relative to amount in AB-101 | MIC (% relative to amount in AB-101) [4, 20]: >50 % relative to amount in AB-101 | MBC (% relative to amount in AB-101) [4, 21]: >50 % relative to amount in AB-101 | MIC (% relative to amount in AB-101) [4, 21]: >50 % relative to amount in AB-101 | MBC (% relative to amount in AB-101) [4, 22]: >50 % relative to amount in AB-101 | MIC (% relative to amount in AB-101) [4, 22]: >50 % relative to amount in AB-101 | MBC (% relative to amount in AB-101) [4, 23]: >50 % relative to amount in AB-101 | MIC (% relative to amount in AB-101) [4, 23]: >50 % relative to amount in AB-101 | MBC (% relative to amount in AB-101) [4, 24]: >50 % relative to amount in AB-101 | MIC (% relative to amount in AB-101) [4, 24]: >50 % relative to amount in AB-101 | healing effects (DNA of the cells; in the Ecuadorian sap): showed little healing effects

catechin
effect on cell proliferation (DNA of the cells): showed little effect

epicatechin
effect on cell proliferation (DNA of the cells): showed little effect
